The values that follow come from ChEMBL document CHEMBL1201862, “PubChem BioAssay data set” (2004).

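Cultured in 96-well plates, cells were exposed to test compound for 48 hours across five concentrations. GI50 = concentration required for 50% inhibition of growth.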 The source made the active and inactive calls. Rule as the data show it: active = GI50 up to about 1.1 µM and inactive = higher.

Test systems include Hs-578T; MDA-N; RPMI-8226; SK-MEL-5; HT-29; A498; SK-MEL-2; SR; K562; PC-3; SF-539; ACHN; T47D; SNB-75; NCI-H23; HOP-62; SF-268; SK-MEL-28; CAKI-1.
Experiment in all cases: NCI tumour cell line growth inhibition, 48 h

With `CC(C)C(OC(=O)c1ccc(NCc2cc(O)ccc2O)cc1)C(C)C`, the GI50 in the assay with Hs-578T was 1.02 µM (active); in the assay on MDA-N it was 2.39 µM (inactive); in the assay on RPMI-8226 it was 0.194 µM (active); with SK-MEL-5, 2.2 µM (inactive); in the assay on HT-29, 3.34 µM (inactive); in the assay on A498 it was 2.25 µM (inactive). Further, the GI50 in the assay on SK-MEL-2 was 2.35 µM (inactive); in the assay on SR, 0.617 µM (active); in the assay with K562, 1.29 µM (inactive); with PC-3, 1.32 µM (inactive); in the assay with SF-539, 1.09 µM (active); in the assay on ACHN, 1.02 µM (active). Besides, the GI50 in the assay on T47D is 0.871 µM (active); with SNB-75, 0.746 µM (active); with NCI-H23 it was 1.89 µM (inactive); in the assay with HOP-62, 7.94 µM (inactive); in the assay with SF-268, 1.87 µM (inactive); in the assay with SK-MEL-28, 1.45 µM (inactive). Besides, the GI50 in the assay with CAKI-1 was 0.218 µM (active).

Consider `c1ccc(C[N+]23C(CC[C@H]2c2ccccc2)CC[C@H]3c2ccccc2)cc1` (some centres not stated), for which the GI50 is 49.5 µM (inactive) in the assay with Hs-578T; 21.2 µM (inactive) with MDA-N; 2.94 µM (inactive) in the assay with RPMI-8226; 5.43 µM (inactive) with SK-MEL-5; 17.9 µM (inactive) with HT-29; > 100 µM (inactive) in the assay on A498. The GI50 is 29.9 µM (inactive) in the assay with SK-MEL-2; 21.4 µM (inactive) with SR; 9.38 µM (inactive) with K562; 26.7 µM (inactive) in the assay on PC-3; > 100 µM (inactive) in the assay on ACHN; 8.47 µM (inactive) in the assay on T47D. The GI50 in the assay with SNB-75 is 21.4 µM (inactive); in the assay on HOP-62, 33.5 µM (inactive); in the assay on SF-268, 43.5 µM (inactive); with SK-MEL-28, 34.6 µM (inactive); in the assay on CAKI-1 it was > 100 µM (inactive).

Take `CCN(CC)c1c(N(CC)CC)c(=O)c1=O`: the GI50 is 21.7 µM (inactive) with Hs-578T; 16.3 µM (inactive) with MDA-N; 1.88 µM (inactive) in the assay with RPMI-8226; 17.4 µM (inactive) with SK-MEL-5; 2.42 µM (inactive) with HT-29; 22.6 µM (inactive) in the assay with A498. For the same compound, the GI50 with SK-MEL-2 was 22.5 µM (inactive); with SR it was 24.8 µM (inactive); in the assay on K562 it was 6.12 µM (inactive); in the assay on PC-3, 17.9 µM (inactive); in the assay on SF-539, 8.05 µM (inactive); with ACHN it was 3.18 µM (inactive). Also, the GI50 in the assay on T47D was 3.18 µM (inactive); with SNB-75, 30.3 µM (inactive); with NCI-H23, 10.6 µM (inactive); in the assay on HOP-62, 29.9 µM (inactive); in the assay on SF-268 it was 26.1 µM (inactive); with SK-MEL-28, 17.4 µM (inactive). In the assay on CAKI-1, the GI50 is 4.27 µM (inactive).

As for `CCOC(=O)CNC(=O)C(CSCC1C(=O)Nc2ccccc21)NC(=O)CCC(N)C(=O)OCC` (configuration not stated), the GI50 in the assay with Hs-578T is 4.21 µM (inactive); in the assay on MDA-N it was 1.79 µM (inactive); with RPMI-8226 it was 1.27 µM (inactive); in the assay with SK-MEL-5 it was 1.6 µM (inactive); in the assay on HT-29 it was 1.55 µM (inactive); in the assay on A498 it was 3.12 µM (inactive). Besides, the GI50 was 1.87 µM (inactive) in the assay on SK-MEL-2; 0.24 µM (active) in the assay on SR; 0.242 µM (active) in the assay on K562; 1.88 µM (inactive) in the assay with PC-3; 0.247 µM (active) in the assay on SF-539; 1.62 µM (inactive) with ACHN. For the same compound, the GI50 is 5.65 µM (inactive) in the assay with T47D; 2.26 µM (inactive) with NCI-H23; 2.1 µM (inactive) with HOP-62; 1.86 µM (inactive) in the assay with SF-268; 1.68 µM (inactive) in the assay on SK-MEL-28; 0.745 µM (active) in the assay with CAKI-1.

On to `O=C(O)c1ccc(/N=C(\C(=N\c2ccc(C(=O)O)cc2)c2ccccc2)c2ccccc2)cc1`, for which the GI50 with Hs-578T, with MDA-N, in the assay with RPMI-8226, in the assay on A498, with SK-MEL-2 and with SR was > 100 µM (inactive) throughout. The GI50 with K562, with PC-3, in the assay on ACHN, with T47D, in the assay with SNB-75 and with NCI-H23 was > 100 µM (inactive) throughout. Moreover, the GI50 in the assay on HOP-62, in the assay with SF-268 and in the assay with SK-MEL-28 was > 100 µM (inactive) each time.

`CO/N=C(/C(=O)OC)c1ccccc1COc1ccccc1C(F)(F)F`: the GI50 is 47.3 µM (inactive) with Hs-578T; 28.1 µM (inactive) with MDA-N; 14.4 µM (inactive) with RPMI-8226; 6.22 µM (inactive) in the assay on SK-MEL-5; 26.1 µM (inactive) in the assay with HT-29; 39.7 µM (inactive) in the assay on A498. The GI50 is 20.8 µM (inactive) in the assay on SK-MEL-2; 8.32 µM (inactive) in the assay on SR; 19.6 µM (inactive) in the assay on K562; 33.5 µM (inactive) with PC-3; 20.3 µM (inactive) in the assay on SF-539; 83.6 µM (inactive) in the assay on ACHN. Moreover, the GI50 in the assay with T47D was 25.2 µM (inactive); in the assay with NCI-H23 it was 22.1 µM (inactive); in the assay on HOP-62, 63.8 µM (inactive); with SF-268, 32.6 µM (inactive); in the assay on SK-MEL-28, 37.8 µM (inactive); in the assay on CAKI-1 it was 20.1 µM (inactive).

Regarding `O=C(O)c1nc2cc(C(F)(F)F)ccc2nc1Nc1ccc(Cl)c(Cl)c1`, the GI50 is 14 µM (inactive) in the assay on Hs-578T; 14 µM (inactive) in the assay with MDA-N; 6.78 µM (inactive) in the assay with RPMI-8226; 17.7 µM (inactive) in the assay with SK-MEL-5; 15.3 µM (inactive) in the assay with HT-29; 15.8 µM (inactive) in the assay with A498. The GI50 is 2.96 µM (inactive) in the assay with SK-MEL-2; 21.6 µM (inactive) with SR; 14.6 µM (inactive) with K562; 4.3 µM (inactive) in the assay with PC-3; 11.4 µM (inactive) in the assay on SF-539; 11.6 µM (inactive) in the assay on ACHN. Also, the GI50 in the assay on T47D is 14.1 µM (inactive); in the assay on SNB-75, 20.5 µM (inactive); in the assay with NCI-H23, 14.3 µM (inactive); with HOP-62 it was 14.5 µM (inactive); with SF-268, 16.8 µM (inactive); in the assay with CAKI-1 it was 28.4 µM (inactive).

Regarding `O=C(O)C1(Nc2ccc(Cl)cc2)CCCC1`, the GI50 in the assay with Hs-578T, in the assay with MDA-N, in the assay on RPMI-8226, with SK-MEL-5, in the assay with HT-29 and in the assay on A498 was > 100 µM (inactive) in each case. The GI50 in the assay on SK-MEL-2, with SR, in the assay with K562, in the assay on PC-3, in the assay with ACHN and with T47D was > 100 µM (inactive) in each case. In addition, the GI50 with SNB-75, with NCI-H23, in the assay on HOP-62, with SF-268, in the assay on SK-MEL-28 and with CAKI-1 was > 100 µM (inactive) throughout.
